Results on 16 compounds are retold here after patent publication US6482827B1, “Matrix metalloproteinase inhibitors” (Pharmacia & Upjohn S.p.A., priority 1997, dated 2002).

A value given as a limit tells only on which side of the number the result lay.

The target in assay [1] is T1, Human collagenase (MMP-1) (Homo sapiens, UniProt P03956).
T1 sequence (P03956 101-269): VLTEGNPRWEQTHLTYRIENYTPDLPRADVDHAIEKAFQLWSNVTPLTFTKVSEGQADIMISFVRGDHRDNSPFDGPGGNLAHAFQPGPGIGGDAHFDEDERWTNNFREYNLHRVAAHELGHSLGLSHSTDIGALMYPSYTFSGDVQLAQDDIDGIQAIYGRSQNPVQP
Put plainly: Biochemical assay (Protocol A), Ki at steady state, MMP-1. The note with it: preincubation, 37° C., pH=7.4, read-out: Ki at steady state (Ki*) for inhibition of MMP-1. As to the method: (§1) Human gelatinase-A (MMP-2) was obtained as pro-enzyme (72 kDa) and was activated with 1 mM 4-aminophenylmercuric acetate for 30 min at 37° C. immediately prior to use. Human stromelysin-1-255 (MMP-3) was obtained as a recombinant pro-enzyme isolated from E. coli and activated by heat (1 h, 55° C.).
(§2) The substrate was the commercial quenched-fluorescence peptide Mca-Pro-Leu-Gly-Leu-Dpa-Ala-Arg-NH2, that is (7-methoxycoumarin4-yl)Acetyl-Pro-Leu-Glv-Leu-(3-[2,4-dinitrophenyl]-L-2,3-diamino-propionyl)-Ala-Arg-NH2 (C. G. Knight et al., FEBS Lett.296:263, 1992). The enzymes cleave at the Gly-Leu bond, removing the internally quenching Dpa group. Release of the highly fluorescent peptide Mca-Pro-Leu was followed fluorimetrically at 37° C. using a Perkin Elmer LS-50 Fluorescence Spectrophotometer fitted with a thermostatted four position stirring cell changer. The excitation wavelength was set at 326 nm (bandwidth 5 nm) and the emission at 392 nm (bandwidth 20 nm). Km values of this substrate for the three MMP's is 70 μM or more (Knight et al., reference above). Substrate concentration was 2 μM in the tests, so that we could approximate to unit the term (1+[substrate]/KM) in calculations. The substrate was stable for over 60 minutes in the assay conditions, giving no appreciable increment of fluorescence. Full response was adjusted against 200 nM Mca-Pro-Leu-OH (the released fluorescent peptide) and the instrument was calibrated in the range 0-100 nM Mca-Pro-Leu-OH, corresponding to 0-5% extent of hydrolysis of the 2 μM substrate. The aqueous assay buffer was 50 mM Tris/HCl pH=7.4 containing 0.15 M NaCl, 10 mM CaCl2, 0.01 mM ZnCl2 and 0.05% Brij 35. The concentration of the activated enzyme was determined by titration against representative inhibitors described in the literature and synthesized in house: Roche Ro31-9790 (N. G. Knebel et al., J. Chromatogr. B 673:213, 1995) for MMP-1, and Celltech CT-1418 (compound 1 in S. K. Chander, J. Pharm. Sci. 84:404, 1995) for MMP-2 and MMP-3. Enzyme concentrations in the tests were set at 1.0 nM for MMP-1, 0.04 nM for MMP-2, and 3.0 nM for M-3. Under our assay conditions, we measured keat/KM values of 26900, 669000 and 9740 1/(M×s) for MMP-1, MMP-2 and MMP-3, respectively. All the three enzymes were found stable for over three hours in the assay conditions.
(§3) The inhibition constant for compounds of the present invention was measured at steady state (Ki*; see J. F. Morrison and C. T. Walsh, Adv. Enzymol. Relat. Areas Mol. Biol. 61:201, 1988), upon preincubation experiment, by measuring V0, the initial rate in the absence of inhibitor, and Vs, the steady-state velocity, at different concentrations of inhibitors in the region of their enzyme-inhibitor dissociation constants.
(§4) On a routine basis, 1.94 mL of assay buffer was pre-heated at 37° C. in a vial, 0.02 mL of inhibitor in DMSO (or DMSO only), and 0.02 ml of 100 nM MMP-1 or 4 nM MMP-2 or 300 nM MMP-3 were added, mixed, and the vial was held at 37° C. for 5-180 minutes. Then 0.02 ml of 0.2 mM substrate was added, mixed and transferred into a pre-heated cell. The sample was allowed to equilibrate in the cuvette for 3-5 min at 37° C. against small changes in temperature and changes in the enzyme-inhibitor equilibria related to addition of substrate. After that, the linear increase of fluorescence was monitored over 3-5 min, and the slope (Vo or Vs) was obtained. Inhibitor concentrations were varied to collect data over Vs/Vo ratio ranging from 0.05 to 0.95. The values of Ki* were calculated by nonlinear weighted regression to the tight-binding equation according to Morrison and Walsh above:
(§5) Vs/Vo=[1/(2×Et)]×SQR[(Ki*+It−Et)^2+4×Ki*×Et]−(Ki*+It−Et)
(§6) wherein Et is the total enzyme concentration, and It is the total inhibitor concentration. The following Table I lists Ki* obtained for some representative examples: […]

Assay [2] has as its target T2, Human stromelysin-1-255 (MMP-3) (Homo sapiens, UniProt P08254).
T2 construct: host or cells: E. coli
Put plainly: Biochemical assay (Protocol A), Ki at steady state, MMP-3. The note with it: preincubation, 37° C., pH=7.4, read-out: Ki at steady state (Ki*) for inhibition of MMP-3. The method, then:
as §1, §2, §3, §4, §5, §6

Assay [3] addresses T3, Human gelatinase-A (MMP-2) (Homo sapiens, UniProt P08253).
T3 sequence (P08253 110-660): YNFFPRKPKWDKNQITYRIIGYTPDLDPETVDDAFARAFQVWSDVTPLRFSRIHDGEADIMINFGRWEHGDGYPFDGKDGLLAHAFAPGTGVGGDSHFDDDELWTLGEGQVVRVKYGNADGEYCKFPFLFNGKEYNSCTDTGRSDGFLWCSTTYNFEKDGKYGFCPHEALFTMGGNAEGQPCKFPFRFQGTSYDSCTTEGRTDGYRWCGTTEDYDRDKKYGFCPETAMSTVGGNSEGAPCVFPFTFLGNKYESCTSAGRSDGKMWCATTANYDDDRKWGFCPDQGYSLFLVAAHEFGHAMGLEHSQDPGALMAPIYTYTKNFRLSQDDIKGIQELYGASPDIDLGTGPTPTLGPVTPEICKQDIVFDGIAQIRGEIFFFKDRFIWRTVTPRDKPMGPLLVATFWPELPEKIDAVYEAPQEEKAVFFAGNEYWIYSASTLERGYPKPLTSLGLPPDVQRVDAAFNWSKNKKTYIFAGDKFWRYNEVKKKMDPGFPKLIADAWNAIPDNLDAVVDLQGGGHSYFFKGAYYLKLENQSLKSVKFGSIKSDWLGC
Briefly: Biochemical assay (Protocol A), Ki at steady state, MMP-2. The following applies: preincubation, 37° C., pH=7.4, read-out: Ki at steady state (Ki*) for inhibition of MMP-2. As to the method: as §1, §2, §3, §4, §5, §6

T2 sequence (P08254 100-255 limits assumed): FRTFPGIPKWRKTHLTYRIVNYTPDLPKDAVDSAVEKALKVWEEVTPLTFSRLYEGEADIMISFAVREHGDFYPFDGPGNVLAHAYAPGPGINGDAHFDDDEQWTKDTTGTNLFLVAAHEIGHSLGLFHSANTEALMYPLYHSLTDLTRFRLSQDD

One may read the Ki as the equilibrium dissociation constant of an inhibitor or competing ligand from its target. As to `COc1ccc(CCC[C@@H](C(=O)N2CCN(c3ccccn3)CC2)[C@H](N)C(=O)NO)cc1` [Example 42, (3S-Amino-4-hydroxyamino-2R-(4-methoxy)phenpropyl)succinyl-4-(2-pyridyl)piperazinamide], the results for the inhibition constant Ki in assay [1], in assay [2] and in assay [3] were 1400 nM, 760 nM and 16 nM, respectively.

On to `CN(C)[C@H](C(=O)NO)[C@@H](CC1CCCC1)C(=O)N1CCCCC1` [Example 30, (2R-Cyclopentylmethyl-3S-N,N-dimethylamino-4-hydroxyamino)succinyl-piperidinamide], for which the Ki is 3.6 nM in assay [1], 270 nM in assay [2] and 25 nM in assay [3].

Take `COc1ccc(CCC[C@@H](C(=O)N[C@H](C)C2CCCCC2)[C@H](N)C(=O)NO)cc1` [Example 32, (3S-Amino-4-hydroxyamino-2R-(4-methoxy)phenpropyl)succinyl-(1R-cyclohexylethyl)amide]: the figures for the inhibition constant (Ki) in assay [1], in assay [2] and in assay [3] were 2600 nM, 500 nM and 37 nM, respectively.

As for `COc1ccc(CCC[C@@H](C(=O)N2CCOCC2)[C@H](NS(=O)(=O)c2ccc(OC)cc2)C(=O)NO)cc1` [Example 20, (4-Hydroxyamino-3S-(4-methoxyphenylsulfonyl)amino-2R-(4-methoxy)phenpropyl)succinyl-morpholinamide], the Ki in assay [1] turned out to be 2000 nM; in assay [2], 390 nM; in assay [3], 40 nM.

For `COc1ccc(S(=O)(=O)N[C@H](C(=O)NO)[C@@H](CC2CCCC2)C(=O)N2CCCCC2)cc1` [Example 23, (2R-Cyclopentylmethyl-4-hydroxyamino-3S-(4-methoxyphenylsulfonyl)amino)succinyl-piperidinamide], the inhibition constant (Ki) in assay [1] is 3 nM; in assay [2], 145 nM; in assay [3], 16 nM.

Consider `COc1ccc(CCC[C@@H](C(=O)N2CCCCC2)[C@H](NCc2cccnc2)C(=O)NO)cc1` [Example 39, (4-Hydroxyamino-2R-(4-methoxy)phenpropyl-3S-(3-pyridyl)methylamino)succinyl-piperidinamide], for which the Ki in assay [1] stood at 760 nM; in assay [2] it was 806 nM; in assay [3] it was 90 nM.

Turning to `CN(C)[C@H](C(=O)NO)[C@@H](CC1CCCC1)C(=O)N1CCN(Cc2ccc3c(c2)OCO3)CC1` [Example 35, (2R-Cyclopentylmethyl-3S-N,N-dimethylamino-4-hydroxyamino)succinyl-(4-piperonyl)-piperazinamide], the Ki was 2.9 nM in assay [1], 31 nM in assay [2] and 8 nM in assay [3].

Consider `COc1ccc(CCC[C@@H](C(=O)N2CCCCC2)[C@H](NC(=O)OC(C)(C)C)C(=O)NO)cc1` [Example 17, (3S-tert-Butoxycarbonylamino-4-hydroxyamino-2R-(4-methoxy)phenpropyl)succinyl-piperidinamide], for which the inhibition constant (Ki) in assay [1] worked out at 9400 nM; in assay [2] it was 4300 nM; in assay [3] it was 610 nM.

On to `CC(C)(C)OC(=O)N[C@H](C(=O)NO)[C@@H](CC1CCCC1)C(=O)N1CCN(Cc2ccc3c(c2)OCO3)CC1` [Example 26, (3S-tert-Butoxycarbonylamino-2R-cyclopentylmethyl-4-hydroxyamino)succinyl-(4-piperonyl)piperazinamide], for which the Ki in assay [1] came to 71 nM; in assay [2] it was 600 nM; in assay [3], 100 nM.

As for `COc1ccc(CCC[C@@H](C(=O)N2CCC2)[C@H](N)C(=O)NO)cc1` [Example 28, (3S-Amino-4-hydroxyamino-2R-(4-methoxy)phenpropyl)succinyl-azetidinamide], the Ki in assay [1] was determined as 7500 nM; in assay [2] it was 10000 nM; in assay [3], 600 nM.

Regarding `CS(=O)(=O)N[C@H](C(=O)NO)[C@@H](CC1CCCC1)C(=O)N1CCN(Cc2ccc3c(c2)OCO3)CC1` [Example 47, (2R-Cyclopentylmethyl-4-hydroxyamino-3S-(methylsulfonyl)amino)succinyl-(4-piperonyl)piperazinamide], the inhibition constant (Ki) was determined as 4.6 nM in assay [1], 140 nM in assay [2] and 28 nM in assay [3].

As for `O=C(NO)[C@@H](NS(=O)(=O)c1ccc(F)cc1)[C@@H](CC1CCCC1)C(=O)N1CCCCC1` [Example 61, (2R-Cyclopentylmethyl-3S-(4-fluorophenylsulfonyl)amino-4-hydroxyamino)succinylpiperidinamide], the inhibition constant Ki turned out to be 7.8 nM in assay [1] and 66 nM in assay [3].

As for `COc1ccc(CCC[C@@H](C(=O)N2CCC(C(=O)NC(C)(C)C)CC2)[C@H](N)C(=O)NO)cc1` [Example 34, (3S-Amino-4-hydroxyamino-2R-(4-methoxy)phenpropyl)succinyl-(4-tert-butylaminocarbonyl)piperidinamide], the Ki in assay [1] came out at 2400 nM; in assay [2] it was 1400 nM; in assay [3] it was 21 nM.

As for `COc1ccc(CCC[C@@H](C(=O)N[C@@H](C)C2CCCCC2)[C@H](N)C(=O)NO)cc1` [Example 33, (3S-Amino-4-hydroxyamino-2R-(4-methoxy)phenpropyl)succinyl-(1S-cyclohexylethyl)amide], the results for the inhibition constant (Ki) in assay [1], in assay [2] and in assay [3] were greater than 10000 nM, 6600 nM and 460 nM, respectively.

For the compound `CC(C)C[C@@H](C(=O)NC(c1ccccc1)c1ccccc1)[C@H](N)C(=O)NO` [Example 25, (3S-Amino-4-hydroxyamino-2R-isobutyl)succinyl-diphenylmethylamide], the inhibition constant Ki in assay [1] was found to be 76 nM; in assay [2], 2300 nM; in assay [3], 190 nM.

As to `CNC(=O)[C@H](Cc1ccccc1)N(C)C(=O)[C@H](CC(C)C)[C@H](N)C(=O)NO` [Example 44, (3S-Amino-4-hydroxyamino-2R-isobutyl)succinyl-N-methyl-N-(1S-methylaminocarbonyl-2-phenyl)ethylamide], the results for the Ki in assay [1], in assay [2] and in assay [3] were 8.9 nM, 210 nM and 2.3 nM, respectively.
